What is called IC50 is the point on the concentration scale where inhibition reaches its midpoint.

SMILES strings stand for the structures.

For test [1], the target named is T1, Human immunodeficiency virus type 1 integrase (Human immunodeficiency virus 1, UniProt Q7ZJM1). Put plainly: Inhibitory concentration required against recombinant wild type HIV integrase by reproducible assay (Strand transfer).
In test [2] the target is T1, Human immunodeficiency virus type 1 integrase. Nature of the test: Inhibitory concentration required against recombinant wild type HIV integrase by reproducible assay (3' processing).

T1 sequence (Q7ZJM1 whole entry): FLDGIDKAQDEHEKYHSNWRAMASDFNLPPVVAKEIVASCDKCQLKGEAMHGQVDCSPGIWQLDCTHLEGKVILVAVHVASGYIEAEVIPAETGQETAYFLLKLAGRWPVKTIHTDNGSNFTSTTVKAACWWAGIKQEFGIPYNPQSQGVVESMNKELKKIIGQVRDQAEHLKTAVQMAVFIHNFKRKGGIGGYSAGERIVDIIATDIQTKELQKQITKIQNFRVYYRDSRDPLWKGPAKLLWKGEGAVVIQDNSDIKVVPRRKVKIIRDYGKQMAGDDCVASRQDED

Regarding `Nc1ccn([C@H]2C[C@H](OP(=O)(O)OC[C@H]3OC[C@@H](n4ccc(=O)[nH]c4=O)[C@@H]3O)[C@@H](COP(=O)(O)O)O2)c(=O)n1`, the 50% inhibitory concentration (IC50) amounted to 5.9 µM in test [1] and 7.5 µM in test [2].

Values taken from ChEMBL document CHEMBL1134083, “Discovery of a nuclease-resistant, non-natural dinucleotide that inhibits HIV-1 integrase” (Bioorg Med Chem Lett, 2001).
